From patent US20180140537A1, “ACTIVE COMPLEX FOR A COSMETIC PRODUCT AGAINST SKIN AGEING” (priority 2014, published 2018)

Key:
MMP-1 = MMP-1 ELISA on UV-A irradiated fibroblasts (DPM); assay type: cell-based, human; settings: for DPM, % reduction of MMP-1 / [MMP-1]: VE 1 mM; for [MMP-1]: (+) UV-A, corrected for cell proteins
Method: (§1) 3.2.1) The principle of the assay is based on the evaluation of 2 parameters—neosynthesis of collagen I and production of MMP-1—on human fibroblasts [NHDF] cultivated in the absence or in the presence of the assay element, and stimulated by UV-A.
(§2) The level of procollagen I is quantified by assaying [PIP] (procollagen of the I peptide type) in incubation media by means of an ELISA assay. The measurement of the MMP-1 level is conducted on the incubation media by means of an ELISA assay.
(§3) Fibroblasts [NHDF] are detached from their support by trypsinization. After counting, the cell suspension is sown in 24-well plates in an amount of 1.10^5 cells/well, in a [D-MEM+10% FCS] medium.
(§4) After 24 h of incubation, the culture medium is removed and replaced with fresh medium supplemented with 1% of FCS, without any ascorbic acid and containing the product(s) to be investigated. The cells are replaced in the oven and incubated for 24 h, in an air-CO2 atmosphere (95%/5%).
(§5) After incubation with test solutions, the cells are rinsed with HBSS and then exposed to UV-A (Philips TL-K 40 W ACTINIC BL REFLECTOR tubes) through HBSS. The UV-A irradiation is of about 10 J/cm^2 for 1 h. After irradiation, the HBSS is replaced with fresh medium containing the assay element.
(§6) The cells are replaced at 37° C. and incubated for 24 h. At the end of the assay, the incubation media of the cultures are sampled and frozen at −20° C. while awaiting the assaying of procollagen I and of MMP-1.
(§7) In parallel, the cell mats are rinsed with HBSS and treated for an assay of cell proteins (BCA protein assay). A (0.1N) NaOH solution is added into each well. After incubation, the extracts are sampled and transferred into a 96-well plate. 200 μl of BCA reagent are added into each well. After incubation, the absorbance (optical density) is measured at 570 nm with a microplate reader.
The MMP-1 activity is measured with an ELISA assay (Human Active MMP-1 from R&D Systems® laboratories, FRANCE) for detecting and quantifying by fluorescence the MMP-1 activity.
(§8) In both cases, the quantification of the fluorescence is accomplished in the culture supernatants, according to the instructions provided by the R&D Systems® laboratories, France, the absorbance being measured at 450 nm.
(§9) The assay was carried out on [NHDF] (F06.2H7 strain) fibroblasts cultivated in a [DMEM+1% FCS] medium, in the absence of sodium ascorbate.
(§10) The levels of procollagen I and of MMP-1 were measured in the supernatants of the cultures after treatment and irradiation of the cells.
(§11) The NHDF cells were treated with the assay complexes CAAL-2, CAAL-3 and CAAL-4, before (24 h) and after (24 h) UVA irradiation.
(§12) The concentrations of procollagen I [PIP] c-terminal peptide and of metalloproteinase-1 [MMP-1] in the different samples (ng/ml) were corrected according to the protein concentrations of the corresponding wells.
DPM=% of reduction in metalloproteinase-1 after treatment of NHDF fibroblasts with UVs in the presence of the complex according to the invention relatively to a control having been subject to a same UV treatment in the absence of an assay complex according to the present invention or other.
(§13) Assay conditions: • 1. Treating the cells, for 24 h, with the assay elements, before irradiation of the cells, • 2. Exposure of the cells to UV-As, in the absence of the assay elements, • 3. Incubation of the irradiated cells for 24 h, in the presence of the assay elements, • 4. Quantification of the levels of pro-collagen I ([PIP] assay) and of MMP-1 in the incubation media.
(§14) Results: The [PIP] and [MMP] values recorded at the control and treated cultures were corrected according to the average level of cell proteins (μg/well).
MMP-1 production: assay of MMP-1 in the incubation media by an Elisa assay.

procollagen I = test: Procollagen I [PIP] ELISA on UV-A irradiated fibroblasts (DPC); assay type: cell-based, human
Method: as §1, §2, §3, §4, §5, §6, §7
The assay of the procollagen I in the samples is carried out with an ELISA assay (Procollagen Type I C-Peptide EIA Kit from R&D Systems® laboratories, France) for detecting and quantifying by fluorescence the C-terminal peptide of human procollagen I.
as §8, §9, §10, §11, §12
DPC=% of increase in collagen after treatment of the NHDF fibroblast cells with UV in the presence of the complex according to the invention relatively to a control having been subject to a same UV treatment in the absence of the assay complex according to the present invention or other; and
as §13, §14
Synthesis of procollagen I: assay of the [PIP] (procollagen of the type I peptide) assay in the incubation media.

HaCaT keratinocytes = test: DCFH assay: UV-B-induced intracellular ROS (epidermal anti-oxidant potential, AOE); assay type: cell-based, human; settings: for AOE, % reduction of [ROSUV]: vs (+) UV control
Excerpt: 3.1.1) The principle of the assay is based on the measurement of the intracellular oxidation level by means of the probe: 2′,7′-dichloro-dihydrofluorescein diacetate (DCFH-DA). Non-fluorescent DCFH-DA penetrates by passive diffusion into the cells. After cleavage of the acetate groups by the esterases, DCFH accumulates at the cytosol. The oxidation of DCFH by the reactive oxygen species (ROS: “Reactive Oxidative Species”) leads to the formation of a fluorescent compound. The DCF fluorescence intensity gives the possibility of evaluating the oxidation level of the cells subject to an oxidative stress.
More specifically, the measurement of the fluorescence intensities of DCF gives the possibility of evaluating the oxidation level of the cells subject to an oxidative stress. The DCFH assay detects a large range of ROSes: hydroxyl peroxyl and other ROSes (Fluorescence probes used for detection of reactive oxygen species, A. Gomes et al., J. Biochem. Biophys. Methods, 65:45-80; 2005).
HaCaT keratinocytes cultivated in a mono-layer are detached by trypsinization. The cell suspension is sown in 24-well plates.
2 plates are sown in parallel: 1 plate [DCFH] (measurement of DCFH fluorescence) and 1 plate [Prot] (measurement of cell proteins).
The plates [DCFH] and [Prot] are treated in parallel, in an identical way, according to the following experimental procedure.
72 hours after sowing, the culture medium is removed and replaced with fresh medium containing the assay element. The cells are replaced at 37° C. and incubated for 24 hours, in an air-CO2 atmosphere (95%/5%). After incubation with the assay element, the cells are rinsed with HBSS (a so called Hanks solution) and then exposed to UV-B (Philips TL-K 40 W ACTINIC BL REFLECTOR tubes) through the HBSS. The cells were treated with the various assayed complexes before (24 h) and after (24 h) irradiation with UV-B for about 30 minutes at 20 mJ/cm^2.
After irradiation, the HBSS is replaced with fresh medium containing the assay element. The cells are replaced at 37° C. for 24 h in an air-CO2 atmosphere (95%/5%). At the end of the assay, the [DCFH] and [Prot] plates are treated, in the following way:
The [DCFH] plates are emptied and rinsed with PBS. The cells are then incubated at 37° C., in the presence of a DCFH-DA solution. After incorporating the probe, the cells are rinsed with PBS. An extraction buffer (Triton X-100 1%) is added into each well. After 45 mins of incubation, the lyzates are sampled, transferred into 96-well plates. The fluorescence intensities (λExc: 485 nm, λEm: 535 nm) are expressed in relative fluorescence units (RFU).
A dosage of the proteins (BCA protein assay) is carried out in parallel in order to correct the [DCFH] values (RFU/well) according to the cell protein level (pg/well) in order to do without a variation in the number of cells related to an effect of the assay element on cell growth.
The assay was carried out on HaCaT keratinocytes (HaCaTp91 strain) cultivated in a [DMEM+1% FCS] medium. The intracellular oxidation level was measured after treatment and irradiation of the cells.
The intracellular oxidation level (F.R.U/well: relative fluorescence unit) recorded at the control and treated cultures was corrected according to the average cell protein level (μg/well). The values [DCFH] are expressed in arbitrary units (from the optical densities): [DCFH]=(F.R.U/μg prot.).
Assay conditions: • 1. Pretreating the cells for 24 h, with the assay elements, before irradiation of the cells, • 2. Exposure of the cells to UV-B (20 mJ/cm^2), in the absence of the assay elements, • 3. Incubation of the irradiated cells for 24 h, in the presence of the assay elements, • 4. Quantification of the intracellular oxidation level (ROS) by measuring the fluorescence of DCFH.
The intracellular oxidation level (RFU/well) recorded at the control and treated cultures were corrected according to the average level of cell proteins (μg/well). […]

[1] = test system: HaCaT keratinocytes and NHDF fibroblasts; test: Skin anti-ageing potential index AAC = AOE + 1/2 DPC + 1/2 DPM; set-up: species or system human; settings: Example 1; AOE+½DPC+½DPM
Method: An anti-age activity index designated as “AAC” was determined according to the present invention, which is a quantitative parameter of the anti-ageing skin potential of a test element taking into account a protective effect at the epidermis by integrating an epidermal anti-oxidant effect score and a protective effect at the dermis by integrating a dermo-protective effect score towards the synthesis of collagen, a main marker of the dermal extracellular matrix (ECM) and/or towards the degradation of metalloproteinase-1 (MMP-1) which is a collagenase enzyme produced by the fibroblasts of the dermis degrading the dermal extracellular matrix (ECM). Still more specifically, a capability is sought for opposing the reduction of collagen synthesis following UV stress and opposing the increase in the production of metalloproteinase-1 for ensuring dermal homeostasis.
More specifically, according to the present invention, an AAC potential is defined as follows:
[AOE]: % of epidermal anti-oxidant potential as defined hereafter.
[DPC.]: % of dermo-protective collagen potential as defined hereafter.
[DPM]: % of dermo-protective MMP1 potential as defined hereafter.
The skin anti-ageing potential ([AAC]) was calculated from the experimental data according to:
[A.A.C]=[AOE]+½.[DPC]+½.[DPM]

[2] = test system: human keratinocyte cells (HaCaT line) and fibroblasts
Method: For each of the substances above, the maximum non-cytotoxic doses were determined, corresponding to cell viability ≥90% (hereafter “NCD”). Cell viability was evaluated by a neutral red test (NR) on human keratinocyte cells (HaCaT line) and on fibroblasts described hereafter after contact for 48 h. The substances were poured into the culture medium DMEM+10% FCS.

[3] = Example 1, NHDF, vs (+) UV control
[4] = Example 1, NHDF, vs (+) UV control, ASC 50 μg/ml
[5] = Example 1, relative to (+) UV control 2 = 100%
[6] = Example 2, NHDF, vs (+) UV control

O=C1O[C@H]([C@@H](O)CO)C([O-])=C1O.[Na+] [ASC, sodium ascorbate]
DPM, % reduction of MMP-1 (MMP-1; [3]): 0%
DPC, % increase in collagen (procollagen I; [4]): 143%
[PIP] (%) (procollagen I; [5]): 243%
[PIP] % of (+) UV control (procollagen I; Example 2): 243%
[PIP] (procollagen I; Example 2, NHDF, (+) UV-A, corrected for cell proteins, ASC 50 μg/ml): 3.79 +/− 0.04
DPC dermo-protective collagen potential (procollagen I; [6]): capable of restoring neosynthesis of collagen I depressed by UVs
AOE, % reduction of [ROSUV] (HaCaT keratinocytes; Example 1, VE 1 mM): 0%
AAC skin anti-ageing potential [1]: 71.5%

sodium hyaluronate [SODIUM H[…]]
NCD (%) by weight (maximum non-cytotoxic dose) [2]: 0.2% by weight

Cc1c(C)c2c(c(C)c1O)CC[C@@](C)(CCC[C@H](C)CCC[C@H](C)CCCC(C)C)O2 [VE, α-tocopherol]
[MMP-1] (MMP-1; Example 1, NHDF, average +/- SD, n=3): 0.172+/— ng/ml
DPM, % reduction of MMP-1 (MMP-1; [3]): 31%
[MMP-1] (%) (MMP-1; [5]): 69%
[MMP-1] % of (+) UV control (MMP-1; Example 2): 62%
[MMP-1] (MMP-1; Example 2, NHDF): 0.198 +/− 0.006
DPM dermo-protective MMP1 potential, % reduction of MMP-1 (MMP-1; [6]): 38%
DPC, % increase in collagen (procollagen I; [4]): 0%
DCFH ASSAY intracellular oxidation level [DCFH] (HaCaT keratinocytes; Example 1, HaCaT, (+) UV-B 20 mJ/cm2, treated 24 h before and 24 h after, complexes at Table I conc., VE 1 mM, average +/- SD, n=3): 35.72 +/− 2.66 F.R.U/μg prot.
UV-induced ROS (HaCaT keratinocytes; Example 1, [DCFH] minus non-irradiated control 1): 22.92 F.R.U/μg prot.
UV-induced ROS (%) (HaCaT keratinocytes; [5]): 19%
AOE, % reduction of [ROSUV] (HaCaT keratinocytes; Example 1, VE 1 mM): 81%
UV-induced ROS (DCFH minus non-irradiated control) (HaCaT keratinocytes; Example 2): 16.38 RFU/μg prot.
DCFH [ROS] intracellular oxidation level (HaCaT keratinocytes; Example 2, HaCaT, (+) UV-B 20 mJ/cm2, DMEM+FCS(1%), average +/- SD, n=3): 28.03 +/− 1.12 RFU/μg prot.
UV-induced ROS (%) (HaCaT keratinocytes; Example 2, relative to (+) UV control = 100%): 12%
AOE anti-oxidant epidermal potential, % reduction of [ROSUV] (HaCaT keratinocytes; Example 2, vitamin E 1 mM): 88%
AAC skin anti-ageing potential [1]: 96.5%
